Converted amounts (≈) assume the structure as drawn.
Columns and labels:
Format in all cases: functional
Staphylococcus aureus [1] = assay: Antibacterial activity against Staphylococcus aureus obtained from complicated skin and skin structure infections by agar dilution method
Staphylococcus aureus [2] = assay: Antibacterial activity against methicillin resistant Staphylococcus aureus obtained from complicated skin and skin structure infections by agar dilution method
Staphylococcus aureus [3] = assay: Antibacterial activity against methicillin susceptible Staphylococcus aureus obtained from complicated skin and skin structure infections by agar dilution method
[4] = test system: Staphylococcus epidermidis; assay: Antibacterial activity against coagulase-negative Staphylococcus epidermidis obtained from complicated skin and skin structure infections by agar dilution method
[5] = test system: Staphylococcus haemolyticus; assay: Antibacterial activity against coagulase-negative Staphylococcus haemolyticus obtained from complicated skin and skin structure infections by agar dilution method
[6] = test system: Staphylococcus lugdunensis; assay: Antibacterial activity against coagulase-negative Staphylococcus lugdunensis obtained from complicated skin and skin structure infections by agar dilution method
Staphylococcus hominis = assay: Antibacterial activity against coagulase-negative Staphylococcus hominis obtained from complicated skin and skin structure infections by agar dilution method
Staphylococcus capitis = assay: Antibacterial activity against coagulase-negative Staphylococcus capitis obtained from complicated skin and skin structure infections by agar dilution method
[7] = test system: Staphylococcus saprophyticus; assay: Antibacterial activity against coagulase-negative Staphylococcus saprophyticus obtained from complicated skin and skin structure infections by agar dilution method
Staphylococcus cohnii = assay: Antibacterial activity against coagulase-negative Staphylococcus cohnii obtained from complicated skin and skin structure infections by agar dilution method
Mammaliicoccus sciuri = assay: Antibacterial activity against coagulase-negative Staphylococcus sciuri obtained from complicated skin and skin structure infections by agar dilution method
Staphylococcus warneri = assay: Antibacterial activity against coagulase-negative Staphylococcus warneri obtained from complicated skin and skin structure infections by agar dilution method
[8] = test system: Staphylococcus lugdunensis; assay: Antibacterial activity against methicillin-resistant, oxacillin-susceptible, coagulase-negative, mecA-positive Staphylococcus lugdunensis obtained from complicated skin and skin structure infections by agar dilution method
Staphylococcus = assay: Antibacterial activity against methicillin-susceptible, coagulase-negative Staphylococcus obtained from complicated skin and skin structure infections by agar dilution method
Enterococcus faecalis = assay: Antibacterial activity against Enterococcus faecalis obtained from complicated skin and skin structure infections by agar dilution method
Enterococcus faecium = assay: Antibacterial activity against Enterococcus faecium obtained from complicated skin and skin structure infections by agar dilution method
Streptococcus agalactiae = assay: Antibacterial activity against Streptococcus agalactiae obtained from complicated skin and skin structure infections by agar dilution method
Streptococcus pyogenes = assay: Antibacterial activity against Streptococcus pyogenes obtained from complicated skin and skin structure infections by agar dilution method
[9] = Antibacterial activity against Streptococcus sp. 'group C' obtained from complicated skin and skin structure infections by agar dilution method
[10] = Antibacterial activity against Streptococcus sp. 'group G' obtained from complicated skin and skin structure infections by agar dilution method
[11] = test system: Streptococcus constellatus; assay: Antibacterial activity against Streptococcus constellatus obtained from complicated skin and skin structure infections by agar dilution method
Streptococcus mitis = assay: Antibacterial activity against Streptococcus mitis obtained from complicated skin and skin structure infections by agar dilution method
[12] = test system: Staphylococcus intermedius; assay: Antibacterial activity against Staphylococcus intermedius obtained from complicated skin and skin structure infections by agar dilution method
Aerococcus viridans = assay: Antibacterial activity against Aerococcus viridans obtained from complicated skin and skin structure infections by agar dilution method
Bacillus = assay: Antibacterial activity against Bacillus spp. obtained from complicated skin and skin structure infections by agar dilution method
Gemella morbillorum = assay: Antibacterial activity against Gemella morbillorum obtained from complicated skin and skin structure infections […]
Gemella = assay: Antibacterial activity against Gemella spp. obtained from complicated skin and skin structure infections by agar dilution method
Lactococcus lactis = assay: Antibacterial activity against Lactococcus lactis obtained from complicated skin and skin structure infections by agar dilution method
Micrococcus = assay: Antibacterial activity against Micrococcus spp. obtained from complicated skin and skin structure infections by agar dilution method

CC(=O)NC[C@H]1CN(c2ccc(N3CCOCC3)c(F)c2)C(=O)O1 [LINEZOLID]
MIC50 (Staphylococcus aureus [1]): 2 µg/mL (≈ 5.93 µM)
MIC90 (Staphylococcus aureus [1]): 2 µg/mL (≈ 5.93 µM)
MIC50 (Staphylococcus aureus [2]): 2 µg/mL (≈ 5.93 µM)
MIC90 (Staphylococcus aureus [2]): 2 µg/mL (≈ 5.93 µM)
MIC50 (Staphylococcus aureus [3]): 2 µg/mL (≈ 5.93 µM)
MIC90 (Staphylococcus aureus [3]): 2 µg/mL (≈ 5.93 µM)
MIC50 [4]: 1 µg/mL (≈ 2.96 µM)
MIC90 [4]: 1 µg/mL (≈ 2.96 µM)
MIC50 [5]: 1 µg/mL (≈ 2.96 µM)
MIC90 [5]: 1 µg/mL (≈ 2.96 µM)
MIC50 [6]: 1 µg/mL (≈ 2.96 µM)
MIC90 [6]: 1 µg/mL (≈ 2.96 µM)
MIC50 (Staphylococcus hominis): 1 µg/mL (≈ 2.96 µM)
MIC90 (Staphylococcus hominis): 1 µg/mL (≈ 2.96 µM)
MIC50 (Staphylococcus capitis): 1 µg/mL (≈ 2.96 µM)
MIC90 (Staphylococcus capitis): 1 µg/mL (≈ 2.96 µM)
MIC50 [7]: 1 µg/mL (≈ 2.96 µM)
MIC90 [7]: 1 µg/mL (≈ 2.96 µM)
MIC50 (Staphylococcus cohnii): 1 µg/mL (≈ 2.96 µM)
MIC90 (Staphylococcus cohnii): 1 µg/mL (≈ 2.96 µM)
MIC50 (Mammaliicoccus sciuri): 1 µg/mL (≈ 2.96 µM)
MIC90 (Mammaliicoccus sciuri): 1 µg/mL (≈ 2.96 µM)
MIC50 (Staphylococcus warneri): 1 µg/mL (≈ 2.96 µM)
MIC90 (Staphylococcus warneri): 1 µg/mL (≈ 2.96 µM)
MIC50 [8]: 1 µg/mL (≈ 2.96 µM)
MIC90 [8]: 1 µg/mL (≈ 2.96 µM)
MIC50 (Staphylococcus): 1 µg/mL (≈ 2.96 µM)
MIC90 (Staphylococcus): 1 µg/mL (≈ 2.96 µM)
MIC50 (Enterococcus faecalis): 1 µg/mL (≈ 2.96 µM)
MIC90 (Enterococcus faecalis): 2 µg/mL (≈ 5.93 µM)
MIC (Enterococcus faecium): 2 µg/mL (≈ 5.93 µM)
MIC50 (Enterococcus faecium): 2 µg/mL (≈ 5.93 µM)
MIC50 (Streptococcus agalactiae): 1 µg/mL (≈ 2.96 µM)
MIC90 (Streptococcus agalactiae): 1 µg/mL (≈ 2.96 µM)
MIC50 (Streptococcus pyogenes): 1 µg/mL (≈ 2.96 µM)
MIC90 (Streptococcus pyogenes): 1 µg/mL (≈ 2.96 µM)
MIC50 [9]: 1 µg/mL (≈ 2.96 µM)
MIC90 [9]: 2 µg/mL (≈ 5.93 µM)
MIC [10]: 1 µg/mL (≈ 2.96 µM)
MIC50 [10]: 1 µg/mL (≈ 2.96 µM)
MIC90 [10]: 1 µg/mL (≈ 2.96 µM)
MIC50 [11]: 1 µg/mL (≈ 2.96 µM)
MIC90 [11]: 1 µg/mL (≈ 2.96 µM)
MIC50 (Streptococcus mitis): ≤ 0.06 µg/mL
MIC90 (Streptococcus mitis): 0.06 µg/mL (≈ 0.178 µM)
MIC50 [12]: ≤ 0.06 µg/mL
MIC90 [12]: 0.06 µg/mL (≈ 0.178 µM)
MIC50 (Aerococcus viridans): 1 µg/mL (≈ 2.96 µM)
MIC90 (Aerococcus viridans): 2 µg/mL (≈ 5.93 µM)
MIC50 (Bacillus): 1 µg/mL (≈ 2.96 µM)
MIC90 (Bacillus): 2 µg/mL (≈ 5.93 µM)
MIC50 (Gemella morbillorum): 1 µg/mL (≈ 2.96 µM)
MIC90 (Gemella morbillorum): 2 µg/mL (≈ 5.93 µM)
MIC50 (Gemella): 1 µg/mL (≈ 2.96 µM)
MIC90 (Gemella): 2 µg/mL (≈ 5.93 µM)
MIC50 (Lactococcus lactis): 1 µg/mL (≈ 2.96 µM)
MIC90 (Lactococcus lactis): 2 µg/mL (≈ 5.93 µM)
MIC50 (Micrococcus): 1 µg/mL (≈ 2.96 µM)
MIC90 (Micrococcus): 2 µg/mL (≈ 5.93 µM)

CCC[C@@H]1C[C@@H](C(=O)N[C@@H]([C@H]2O[C@H](SC)[C@H](O)[C@@H](O)[C@H]2O)[C@H](C)Cl)N(C)C1 [CLINDAMYCIN]
MIC50 (Staphylococcus aureus [2]): 0.12 µg/mL (≈ 0.282 µM)
MIC90 (Staphylococcus aureus [2]): > 16 µg/mL
MIC50 (Staphylococcus aureus [3]): 0.12 µg/mL (≈ 0.282 µM)
MIC90 (Staphylococcus aureus [3]): 0.12 µg/mL (≈ 0.282 µM)
MIC50 [4]: 0.06 µg/mL (≈ 0.141 µM)
MIC90 [4]: 1 µg/mL (≈ 2.35 µM)
MIC50 [5]: 0.06 µg/mL (≈ 0.141 µM)
MIC90 [5]: 1 µg/mL (≈ 2.35 µM)
MIC50 [6]: 0.06 µg/mL (≈ 0.141 µM)
MIC90 [6]: 1 µg/mL (≈ 2.35 µM)
MIC50 (Staphylococcus hominis): 0.06 µg/mL (≈ 0.141 µM)
MIC90 (Staphylococcus hominis): 1 µg/mL (≈ 2.35 µM)
MIC50 (Staphylococcus capitis): 0.06 µg/mL (≈ 0.141 µM)
MIC90 (Staphylococcus capitis): 1 µg/mL (≈ 2.35 µM)
MIC50 [7]: 0.06 µg/mL (≈ 0.141 µM)
MIC90 [7]: 1 µg/mL (≈ 2.35 µM)
MIC50 (Staphylococcus cohnii): 0.06 µg/mL (≈ 0.141 µM)
MIC90 (Staphylococcus cohnii): 1 µg/mL (≈ 2.35 µM)
MIC50 (Mammaliicoccus sciuri): 0.06 µg/mL (≈ 0.141 µM)
MIC90 (Mammaliicoccus sciuri): 1 µg/mL (≈ 2.35 µM)
MIC50 (Staphylococcus warneri): 0.06 µg/mL (≈ 0.141 µM)
MIC90 (Staphylococcus warneri): 1 µg/mL (≈ 2.35 µM)
MIC50 [8]: 0.06 µg/mL (≈ 0.141 µM)
MIC90 [8]: > 8 µg/mL
MIC50 (Staphylococcus): ≤ 0.06 µg/mL
MIC90 (Staphylococcus): 0.12 µg/mL (≈ 0.282 µM)
MIC50 (Enterococcus faecalis): 16 µg/mL (≈ 37.6 µM)
MIC90 (Enterococcus faecalis): > 8 µg/mL
MIC (Enterococcus faecium): ≤ 0.06 µg/mL
MIC50 (Enterococcus faecium): 0.06 µg/mL (≈ 0.141 µM)
MIC50 (Streptococcus agalactiae): 0.06 µg/mL (≈ 0.141 µM)
MIC90 (Streptococcus agalactiae): > 16 µg/mL
MIC50 (Streptococcus pyogenes): 0.06 µg/mL (≈ 0.141 µM)
MIC90 (Streptococcus pyogenes): 0.06 µg/mL (≈ 0.141 µM)
MIC50 [9]: ≤ 0.06 µg/mL
MIC90 [9]: 0.25 µg/mL (≈ 0.588 µM)
MIC50 [10]: 0.06 µg/mL (≈ 0.141 µM)
MIC90 [10]: 0.06 µg/mL (≈ 0.141 µM)
MIC [11]: ≤ 0.06 µg/mL
MIC50 [11]: ≤ 0.06 µg/mL
MIC90 [11]: 0.06 µg/mL (≈ 0.141 µM)
MIC50 (Streptococcus mitis): 2 µg/mL (≈ 4.71 µM)
MIC90 (Streptococcus mitis): 4 µg/mL (≈ 9.41 µM)
MIC50 [12]: 2 µg/mL (≈ 4.71 µM)
MIC90 [12]: 4 µg/mL (≈ 9.41 µM)
MIC50 (Aerococcus viridans): 1 µg/mL (≈ 2.35 µM)
MIC90 (Aerococcus viridans): 4 µg/mL (≈ 9.41 µM)
MIC50 (Bacillus): 1 µg/mL (≈ 2.35 µM)
MIC90 (Bacillus): 4 µg/mL (≈ 9.41 µM)
MIC50 (Gemella morbillorum): 1 µg/mL (≈ 2.35 µM)
MIC90 (Gemella morbillorum): 4 µg/mL (≈ 9.41 µM)
MIC50 (Gemella): 1 µg/mL (≈ 2.35 µM)
MIC90 (Gemella): 4 µg/mL (≈ 9.41 µM)
MIC50 (Lactococcus lactis): 1 µg/mL (≈ 2.35 µM)
MIC90 (Lactococcus lactis): 4 µg/mL (≈ 9.41 µM)
MIC50 (Micrococcus): 1 µg/mL (≈ 2.35 µM)
MIC90 (Micrococcus): 4 µg/mL (≈ 9.41 µM)
